For the experiment, the system named is CD2F1 mice, L1210 leukemia ip, survival T/C. In words: NCI In Vivo Anticancer Drug Screen. Data for tumor model L1210 Leukemia (intraperitoneal) in CD2F1 (CDF1) mice. Particulars: higher = longer survival. The essentials:
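Antitumor effect is scored in animals hosting a serially transplanted tumor. Values compare compound-dosed animals against vehicle-only controls as a simple quotient.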

Setting [1] is: endpoint: mean survival time, dose: 100.0 mg/kg/injection, schedule: Q04DX003 (ip), vehicle: saline with Tween-80.
Setting [2] is: endpoint: mean survival time, dose: 100.0 mg/kg/injection, schedule: Q01DX001 (ip), vehicle: saline.
Where [3] appears, read: endpoint: mean survival time, dose: 200.0 mg/kg/injection, schedule: Q01DX001 (ip), vehicle: saline.
The mark [4] stands for this setting: endpoint: mean survival time, dose: 400.0 mg/kg/injection, schedule: Q01DX001 (ip), vehicle: saline.
Setting [5] is: endpoint: mean survival time, dose: 100.0 mg/kg/injection, schedule: Q01DX009 (ip), vehicle: saline with Tween-80.
Where [6] appears, read: endpoint: mean survival time, dose: 200.0 mg/kg/injection, schedule: Q01DX009 (ip), vehicle: saline with Tween-80.
The mark [7] stands for this setting: endpoint: mean survival time, dose: 400.0 mg/kg/injection, schedule: Q01DX009 (ip), vehicle: saline with Tween-80.
Setting [8] is: endpoint: mean survival time, dose: 100.0 mg/kg/injection, schedule: Q01DX009 (ip), vehicle: saline.
Setting [9] is: endpoint: mean survival time, dose: 100.0 mg/kg/injection, schedule: Q04DX003 (ip), vehicle: saline.
Where [10] appears, read: endpoint: mean survival time, dose: 200.0 mg/kg/injection, schedule: Q01DX009 (ip), vehicle: saline.
Where [11] appears, read: endpoint: mean survival time, dose: 200.0 mg/kg/injection, schedule: Q04DX003 (ip), vehicle: saline.
The mark [12] stands for this setting: endpoint: mean survival time, dose: 400.0 mg/kg/injection, schedule: Q01DX009 (ip), vehicle: saline.
Where [13] appears, read: endpoint: mean survival time, dose: 400.0 mg/kg/injection, schedule: Q04DX003 (ip), vehicle: saline.
[14] abbreviates: endpoint: mean survival time, dose: 50.0 mg/kg/injection, schedule: Q01DX009 (ip), vehicle: saline with Tween-80.
[15] abbreviates: endpoint: mean survival time, dose: 200.0 mg/kg/injection, schedule: Q04DX003 (ip), vehicle: saline with Tween-80.
The mark [16] stands for this setting: endpoint: mean survival time, dose: 400.0 mg/kg/injection, schedule: Q04DX003 (ip), vehicle: saline with Tween-80.

The structures appear in SMILES notation. Where “and” joins values, the source holds several entries; their conditions need not be identical. Equal entries are not always repeated. Toxic doses and inconclusive results are not listed.

Turning to `CCN(CC)CCNc1cc(C)nc(/N=C(\N)Nc2ccc(Br)c(C(F)(F)F)c2)n1`, the T/C under setting [1] was 98 % of control.

Take `OC(CN1CCOCC1)CN1CCOCC1`: the T/C was 104 % of control under setting [2], 104 % of control under setting [3] and 103 % of control under setting [4].

`COc1cc(NC(=O)CC(C)=O)c(OC)cc1Cl`: the T/C under setting [5] is 96 % of control, the T/C under setting [6] is 94 % of control and the T/C under setting [7] is 91 % of control.

With `NC(Cc1ccc([N+](=O)[O-])cc1)C(=O)O` (stereo unspecified), the T/C was 96 % of control under setting [8]; 97 % of control under setting [9]; 98 % of control under setting [10]; 100 % of control under setting [11]; 94 % of control under setting [12]; 103 % of control under setting [13].

Take `c1cc2c(c(CC3CO3)c1CC1CO1)OCCOCCOCCOCCO2` (stereo unspecified): the T/C (endpoint: median survival time, dose: 12.5 mg/kg/injection, schedule: Q01DX009 (ip), vehicle: saline + alcohol) is 112 % of control and 97 % of control and 98 % of control; the T/C (endpoint: median survival time, dose: 25.0 mg/kg/injection, schedule: Q01DX009 (ip), vehicle: saline + alcohol) was 123 % of control and 97 % of control and 98 % of control; the T/C (endpoint: median survival time, dose: 50.0 mg/kg/injection, schedule: Q01DX009 (ip), vehicle: saline + alcohol) was 102 % of control and 104 % of control; the T/C (endpoint: median survival time, dose: 100.0 mg/kg/injection, schedule: Q01DX009 (ip), vehicle: saline + alcohol) is 119 % of control and 93 % of control and 110 % of control; the T/C (endpoint: median survival time, dose: 200.0 mg/kg/injection, schedule: Q01DX009 (ip), vehicle: saline + alcohol) is 120 % of control.

Regarding `CCN=C(NCC)S(=O)O`, the T/C runs as follows: under setting [8], 90 % of control; under setting [10], 97 % of control; under setting [12], 103 % of control.

Turning to `COC(=O)Nc1cccc(OS(=O)(=O)N(C)C)c1`, the T/C under setting [1] is 103 % of control.

`O=c1cccc[nH]1` (tested in a mixture with another compound): the T/C was 108 % of control under setting [14], 97 % of control under setting [9] and 97 % of control under setting [11].

Turning to `CCCCCCCCCC(=O)NC(=S)Nc1ccc(C(=O)OCCCC)cc1`, the T/C is 88 % of control (endpoint: mean survival time, dose: 100.0 mg/kg/injection, schedule: Q01DX001 (ip), vehicle: saline with Tween-80); 103 % of control under setting [5]; 94 % of control and 103 % of control (endpoint: mean survival time, dose: 100.0 mg/kg/injection, schedule: Q04DX002 (ip), vehicle: saline with Tween-80); 90 % of control under setting [1]; 86 % of control (endpoint: mean survival time, dose: 200.0 mg/kg/injection, schedule: Q01DX001 (ip), vehicle: saline with Tween-80); 92 % of control and 98 % of control under setting [6]. The T/C runs as follows: (endpoint: mean survival time, dose: 200.0 mg/kg/injection, schedule: Q04DX002 (ip), vehicle: saline with Tween-80) 90 % of control and 100 % of control; under setting [15], 93 % of control; under setting [7], 89 % of control and 92 % of control; (endpoint: mean survival time, dose: 400.0 mg/kg/injection, schedule: Q04DX002 (ip), vehicle: saline with Tween-80) 90 % of control and 91 % of control; under setting [16], 93 % of control.

Regarding `BrC1CCCC1`, the T/C is 100 % of control under setting [2], 102 % of control under setting [3] and 102 % of control under setting [4].

On to `CC(C)/C=C\C=C\C(C)C`, for which the T/C under setting [14] was 96 % of control, the T/C under setting [5] was 103 % of control and the T/C under setting [6] was 96 % of control.

For the compound `CC(=O)OCC1OC(OC2=C(CC=C(C)C)C(=O)c3ccccc3C2=O)C(OC(C)=O)C(OC(C)=O)C1OC(C)=O` (stereo unspecified), the T/C was 108 % of control (endpoint: mean survival time, dose: 6.25 mg/kg/injection, schedule: Q01DX009 (ip), vehicle: Klucel (hydroxypropylcellulose) (HPC)); 101 % of control and 108 % of control (endpoint: mean survival time, dose: 12.5 mg/kg/injection, schedule: Q01DX009 (ip), vehicle: Klucel (hydroxypropylcellulose) (HPC)); 101 % of control and 108 % of control (endpoint: mean survival time, dose: 25.0 mg/kg/injection, schedule: Q01DX009 (ip), vehicle: Klucel (hydroxypropylcellulose) (HPC)); 101 % of control (endpoint: mean survival time, dose: 50.0 mg/kg/injection, schedule: Q01DX009 (ip), vehicle: Klucel (hydroxypropylcellulose) (HPC)); 92 % of control and 102 % of control (endpoint: mean survival time, dose: 100.0 mg/kg/injection, schedule: Q01DX009 (ip), vehicle: Klucel (hydroxypropylcellulose) (HPC)); 89 % of control and 96 % of control (endpoint: mean survival time, dose: 200.0 mg/kg/injection, schedule: Q01DX009 (ip), vehicle: Klucel (hydroxypropylcellulose) (HPC)).

On to `O=C(C(Oc1ccc(Cl)cc1)Oc1ccc(Cl)cc1)N(O)c1ccccc1OCc1ccccc1`, for which the T/C is 102 % of control under setting [1], 96 % of control under setting [15] and 94 % of control under setting [16].

As for `CSc1cc(=O)n2c3ccccc3c3ccnc1c32`, the T/C by setting is: (endpoint: mean survival time, dose: 1.25 mg/kg/injection, schedule: Q01DX009 (ip), vehicle: saline with Tween-80) 103 % of control; (endpoint: mean survival time, dose: 2.5 mg/kg/injection, schedule: Q01DX009 (ip), vehicle: saline with Tween-80) 95 % of control; (endpoint: mean survival time, dose: 5.0 mg/kg/injection, schedule: Q01DX009 (ip), vehicle: saline with Tween-80) 97 % of control; (endpoint: mean survival time, dose: 10.0 mg/kg/injection, schedule: Q01DX009 (ip), vehicle: saline with Tween-80) 110 % of control.

Regarding `Nc1ccc(C(=O)Nc2ccc(S(=O)(=O)F)cc2)cc1`, the T/C was 100 % of control under setting [2], 96 % of control under setting [3] and 102 % of control under setting [4].

`CCCOC(=O)C1CCCCC1C(=O)OCCC` (stereo unspecified): the T/C runs as follows: under setting [9], 98 % of control; under setting [11], 98 % of control; under setting [13], 104 % of control.

In the case of `COC1C(O)C(C)OC(O[C@@H]2C[C@H]3CC[C@@H]4[C@H](CC[C@]5(C)[C@@H](C6=CC(=O)OC6)CC[C@]45O)[C@@]3(C)[C@H](O)C2)C1O` (stereo partly specified), the T/C (endpoint: mean survival time, dose: 75.0 mg/kg/injection, schedule: Q01DX001 (ip), vehicle: other) was 90 % of control and the T/C (endpoint: mean survival time, dose: 150.0 mg/kg/injection, schedule: Q01DX001 (ip), vehicle: other) is 91 % of control.

In the case of `COc1cc(C=Nc2cc(Br)cc(Br)c2)ccc1N(CCCl)CCCl`, for the setting “endpoint: mean survival time, dose: 200.0 mg/kg/injection, schedule: Q01DX001 (ip), vehicle: other”, the T/C is 150 % of control.

`Nc1[nH]c(=O)[nH]c(=O)c1N`: the T/C is, setting by setting: under setting [14], 93 % of control; under setting [5], 93 % of control; (endpoint: mean survival time, dose: 100.0 mg/kg/injection, schedule: Q04DX002 (ip), vehicle: saline) 97 % of control; under setting [1], 108 % of control; under setting [6], 93 % of control; (endpoint: mean survival time, dose: 200.0 mg/kg/injection, schedule: Q04DX002 (ip), vehicle: saline) 97 % of control. Also, the T/C under setting [15] is 108 % of control.

For `O=C(CCC(NC(=O)OCc1ccccc1)C(=O)O)OCc1ccccc1` (stereo unspecified), the T/C runs as follows: under setting [1], 100 % of control; under setting [15], 101 % of control; under setting [16], 94 % of control.

As to `CC(C)(C)c1cc(C(C)(C)C)c(C(=O)O)c(C(C)(C)C)c1Cl`, the T/C reads like this: under setting [1], 101 % of control; under setting [15], 97 % of control; under setting [16], 100 % of control.

Take `[Cl][Pt+2][Cl].[NH-]C(CC([NH-])c1ccccc1)c1ccccc1` (stereo unspecified): the T/C by setting is: (endpoint: mean survival time, dose: 6.25 mg/kg/injection, schedule: Q04DX003 (ip), vehicle: saline with Tween-80) 119 % of control and 113 % of control and 115 % of control; (endpoint: mean survival time, dose: 12.5 mg/kg/injection, schedule: Q04DX003 (ip), vehicle: saline with Tween-80) 121 % of control and 113 % of control and 119 % of control; (endpoint: mean survival time, dose: 25.0 mg/kg/injection, schedule: Q04DX003 (ip), vehicle: saline with Tween-80) 122 % of control and 113 % of control and 119 % of control.

Regarding `CN(C)C=NCCc1ccccc1`, the T/C (endpoint: mean survival time, dose: 50.0 mg/kg/injection, schedule: Q01DX001 (ip), vehicle: saline) is 97 % of control.

The values above are taken from PubChem BioAssay AID256 (DTP/NCI, 2004).
